In US20250276079A1, “COMBINATION OF ANTIBODY-DRUG CONJUGATE WITH EZH1 and/or EZH2 INHIBITOR” (DAIICHI SANKYO COMPANY, LIMITED, priority 2022, published 2025):

Assays:
Type in all cases: in vivo
[1] = test system: Human breast cancer cell line JIMT-1; experiment: Antitumor study (2): JIMT-1 subcutaneous xenograft, HER2-ADC (1); details: Day 52; JIMT-1 s.c. in female SCID mice; Compound A feed mix 0.3% Day 14 to Day 42; HER2-ADC (1) 10 mg/kg i.v. Day 18
Method: (§1) Measurement and calculation formula: In all studies, the major axis and minor axis of tumors were measured once a week or twice a week with an electronic digital caliper, and the estimated tumor volume (mm^3) was calculated. The calculation formula is as shown below.
(§2) Tumor growth inhibition (TGI) was calculated in accordance with the following calculation formula.
(§3) [formula] • T: Average estimated tumor volume of mice of test substance administration group • C: Average estimated tumor volume of mice of control group
(§4) The HER2-ADC (1) was diluted with ABS buffer (10 mM acetate buffer [pH 5.5], 5% sorbitol), and intravenously administered in a fluid volume of 10 mL/kg to the tail vein. The Compound A was orally administered by a feed mix containing 0.3% of Compound A.
(§5) These methods are common to Examples 5 to 8, and Examples 11 to 16. In Example 12 to Example 16, TROP2-ADC (1), HER3-ADC (1), CD37-ADC (1), or B7-H3-ADC (1) was used in the evaluation. Moreover, the Compound A was orally administered by a feed mix containing 0.25% of Compound A in Example 12 to Example 16.
Human breast cancer cell line JIMT-1, which was purchased from DSMZ (Deutsche Sammlung von Mikroorganismen und Zellkulturen GmbH), was suspended into DPBS and subcutaneously transplanted at 5×10^6 cells into the right side of each female SCID mouse (CLEA Japan, Inc.) (Day 0). […]

[2] = test system: Human breast cancer cell line JIMT-1; experiment: Antitumor study (8): JIMT-1 subcutaneous xenograft, HER3-ADC (1); details: Day 46; JIMT-1 s.c. in female SCID mice; Compound A feed mix 0.25% Day 11 to Day 39; HER3-ADC (1) 10 mg/kg i.v. Day 11
Method: as §1, §2, §3, §4, §5
Human breast cancer cell line JIMT-1, which was purchased from DSMZ (Deutsche Sammlung von Mikroorganismen und Zellkulturen GmbH), was suspended into saline and subcutaneously transplanted at 5×10^6 cells into the right side of each female SCID mouse (CLEA Japan, Inc.) (Day 0). […]

[3] = test system: Human non-small lung cancer cell line Calu-3; experiment: Antitumor study (6): Calu-3 subcutaneous xenograft; details: Day 35; Calu-3 s.c. in female SCID mice; Compound A feed mix 0.3% Day 14 to Day 42; HER2-ADC (1) 1 mg/kg i.v. Day 14
Method: as §1, §2, §3, §4, §5
Human non-small lung cancer cell line Calu-3, which was purchased from ATCC (American Type Culture Collection), was suspended into Matrigel matrix and subcutaneously transplanted at 3×10^6 cells into the right side of each female SCID mouse (The Jackson Laboratory Japan, Inc.) (Day 0). […]

[4] = test system: Human non-small lung cancer cell line NCI-H358; experiment: Antitumor study (7): NCI-H358 subcutaneous xenograft; details: Day 115; NCI-H358 s.c. in female SCID mice; Compound A feed mix 0.25% Day 24 to Day 66; TROP2-ADC (1) 10 mg/kg i.v. Day 24 and Day 45
Method: as §1, §2, §3, §4, §5
Human non-small lung cancer cell line NCI-H358, which was purchased from ATCC (American Type Culture Collection), was suspended into 50% Matrigel matrix and subcutaneously transplanted at 3×10^6 cells into the right side of each female SCID mouse (CLEA Japan, Inc.) (Day 0). […]

[5] = test system: Human breast cancer cell line MX-1; experiment: Antitumor study (4): MX-1 subcutaneous xenograft; details: Day 51; MX-1 s.c. in female SCID mice; Compound A feed mix 0.3% Day 13 to Day 41; HER2-ADC (1) 3 mg/kg i.v. Day 17
Method: as §1, §2, §3, §4, §5
Human breast cancer cell line MX-1, which was purchased from CLS (Cell Lines Service), was suspended into 50% Matrigel matrix and subcutaneously transplanted at 5×10^6 cells into the right side of each female SCID mouse (CLEA Japan, Inc.) (Day 0). […]

[6] = test system: Human diffuse large B-cell lymphoma cell line WSU-DLCL2; experiment: Antitumor study (9): WSU-DLCL2 subcutaneous xenograft; details: Day 44; WSU-DLCL2 s.c. in female SCID mice; Compound A feed mix 0.25% Day 16 to Day 44; CD37-ADC (1) 1 mg/kg i.v. Day 16
Method: as §1, §2, §3, §4, §5
Human diffuse large B-cell lymphoma cell line WSU-DLCL2, which was purchased from DSMZ (Deutsche Sammlung von Mikroorganismen und Zellkulturen GmbH), was suspended into DPBS and subcutaneously transplanted at 1×10^7 cells into the right side of each female SCID mouse (CLEA Japan, Inc.) (Day 0). […]

[7] = test system: Human neuroendocrine prostate cancer cell line NCI-H660; experiment: Antitumor study (10): NCI-H660 subcutaneous xenograft; details: Day 58; NCI-H660 s.c. in castrated male SCID mice; Compound A feed mix 0.25% Day 29 to Day 58; B7-H3-ADC (1) 0.3 mg/kg i.v. Day 29 and Day 43
Method: as §1, §2, §3, §4, §5
Human neuroendocrine prostate cancer cell line NCI-H660, which was purchased from ATCC (American Type Culture Collection), was suspended into 50% Matrigel matrix and subcutaneously transplanted at 2×10^6 cells into the right side of each castrated male SCID mouse (CLEA Japan, Inc.) (Day 0). […]

[8] = test system: Human breast cancer cell line ZR-75-1; experiment: Antitumor study (5): ZR-75-1 subcutaneous xenograft; details: Day 49; ZR-75-1 s.c. in female NSG mice (estradiol cypionate weekly); Compound A feed mix 0.3% Day 14 to Day 42; HER2-ADC (1) 5 mg/kg i.v. Day 14
Method: as §1, §2, §3, §4
as §5, with “Example 16. […]” for “Example 16.”

[9] = test system: Human gastric cancer cell line NCI-N87; experiment: Antitumor study (1): NCI-N87 subcutaneous xenograft; details: Day 63; NCI-N87 s.c. in female SCID mice; Compound A feed mix 0.3% Day 6 to Day 34; HER2-ADC (1) 2 mg/kg i.v. Day 10
Method: as §1, §2, §3, §4, §5
Human gastric cancer cell line NCI-N87, which was purchased from ATCC (American Type Culture Collection), was suspended into DPBS (Dulbecco's phosphate-buffered saline) and subcutaneously transplanted at 1×10^7 cells into the right side of each female SCID (Severe Combined Immunodeficient) mouse (CLEA Japan, Inc.) (Day 0). […]

[10] = test system: Human breast cancer cell line MDA-MB-453; experiment: Antitumor study (3): MDA-MB-453 subcutaneous xenograft; details: Day 74; MDA-MB-453 s.c. in female SCID mice; Compound A feed mix 0.3% Day 18 to Day 46; HER2-ADC (1) 1 mg/kg i.v. Day 22
Method: as §1, §2, §3, §4, §5
Human breast cancer cell line MDA-MB-453, which was purchased from ATCC, was suspended into 50% Matrigel matrix and subcutaneously transplanted at 1×10^7 cells into the right side of each female SCID mouse (CLEA Japan, Inc.) (Day 0). Eighteen days later, the mice were divided into groups based on estimated tumor volumes. […]

## Cc1cc(C)c(CNC(=O)c2cc(Cl)c3c(c2C)O[C@@](C)([C@H]2CC[C@H](N(C)C)CC2)O3)c(=O)[nH]1 [Compound A, (2R)-7-chloro-2-[trans-4-(dimethylamino)cyclohexyl]-N-[(4,6-dimethyl-2-oxo-1,2-dihydropyridin-3-yl)methyl]-2,4-dimethyl-1,3-benzodioxole-5-carboxamide p-toluene sulfonate]
[1]
  Tumor growth inhibition (TGI): 19%
[2]
  Tumor growth inhibition (TGI): 41%
[3]
  Tumor growth inhibition (TGI): 20%
[4]
  Tumor growth inhibition (TGI): 20%
[5]
  Tumor growth inhibition (TGI): 9%
[6]
  Tumor growth inhibition (TGI): 31%
[7]
  Tumor growth inhibition (TGI): 80%
[8]
  Tumor growth inhibition (TGI): 53%
[9]
  Tumor growth inhibition (TGI): 38%
[10]
  Tumor growth inhibition (TGI): 41%
